{
  "source": "patent US4162324A",
  "about": "“Antibiotics 890A1 and 890A3” (Merck & Co., Inc., priority 1977, dated 1979)",
  "key": {"[1]": {"test_system": "Alcaligenes faecalis ATCC 213", "test": "In vitro antibacterial spectrum profile, zone of inhibition", "format": "cell-based", "details": "ATCC213, 182 μg/ml, read-out: Inhib. Zone Diam.", "description": "(§1) The test to determine the antibiotic spectrum profile is carried out by application of a 0.015 ml. droplet on the surface of a 100×15 mm. petri plate containing 5 ml. of seeded nutrient agar and 0.2% yeast extract. The antibiotic 890A1 is tested at a level of 33 μg/ml. and the antibiotic 890A3 is tested at a level of 182 μg/ml."}, "[2]": {"test_system": "Bacillus sp. MB-633", "test": "In vitro antibacterial spectrum profile, zone of inhibition", "format": "cell-based", "details": "SP.MB633, 182 μg/ml, read-out: Inhib. Zone Diam.", "description": "as §1"}, "[3]": {"test_system": "Corynebacterium pseudoidph. ATCC 9742", "test": "In vitro antibacterial spectrum profile, zone of inhibition", "format": "cell-based", "details": "ATCC9742, 182 μg/ml, read-out: Inhib. Zone Diam.", "description": "as §1"}, "[4]": {"test_system": "Proteus vulgaris ATCC 21100", "test": "In vitro antibacterial spectrum profile, zone of inhibition", "format": "cell-based", "details": "ATCC21100, 182 μg/ml, read-out: Inhib. Zone Diam.", "description": "as §1"}, "[5]": {"test_system": "Proteus vulgaris MB-1012", "test": "In vitro antibacterial spectrum profile, zone of inhibition", "format": "cell-based", "details": "MB1012, 182 μg/ml, read-out: Inhib. Zone Diam."}, "[6]": {"test_system": "Pseudomonas aeruginosa MB-979", "test": "In vitro antibacterial spectrum profile, zone of inhibition", "format": "cell-based", "details": "MB979, 182 μg/ml, read-out: Inhib. Zone Diam."}, "[7]": {"test_system": "Serratia marcescens ATCC 990", "test": "In vitro antibacterial spectrum profile, zone of inhibition", "format": "cell-based", "details": "ATCC990, 182 μg/ml, read-out: Inhib. Zone Diam."}, "[8]": {"test_system": "Staphlococcus aureus ATCC 6538 P", "test": "In vitro antibacterial spectrum profile, zone of inhibition", "format": "cell-based", "details": "read-out: Inhib. Zone Diam."}, "[9]": {"test_system": "Bacillus subtilis ATCC 6633", "test": "In vitro antibacterial spectrum profile, zone of inhibition", "format": "cell-based", "details": "ATCC6633, 182 μg/ml, read-out: Inhib. Zone Diam."}, "[10]": {"test_system": "Sarcina lutea ATCC 9341", "test": "In vitro antibacterial spectrum profile, zone of inhibition", "format": "cell-based", "details": "Micrococcus luteus, ATCC9341; 182 μg/ml; read-out: Inhib. Zone Diam."}, "[11]": {"test_system": "Staphylococcus aureus MB-698", "test": "In vitro antibacterial spectrum profile, zone of inhibition", "format": "cell-based", "details": "MB698, read-out: Inhib. Zone Diam."}, "[12]": {"test_system": "Streptococcus faecalis MB-753", "test": "In vitro antibacterial spectrum profile, zone of inhibition", "format": "cell-based", "details": "Enterococcus faecalis, MB753; 182 μg/ml; read-out: Inhib. Zone Diam."}, "[13]": {"test_system": "Brucella bronchiseptica ATCC 4617", "test": "microbe, parasite or virus in culture", "format": "cell-based", "details": "Bordetella bronchiseptica, ATCC4617, read-out: Inhib. Zone Diam."}, "[14]": {"test_system": "Salmonella gallinarum MB-1287", "test": "In vitro antibacterial spectrum profile, zone of inhibition", "format": "cell-based", "details": "Salmonella enterica, 182 μg/ml, read-out: Inhib. Zone Diam."}, "[15]": {"test_system": "Vibrio percolans ATCC 8461", "test": "In vitro antibacterial spectrum profile, zone of inhibition", "format": "cell-based", "details": "Comamonas terrigena, ATCC8461; 182 μg/ml; read-out: Inhib. Zone Diam."}, "[16]": {"test_system": "Xanthomonas vesicatoria MB-815", "test": "In vitro antibacterial spectrum profile, zone of inhibition", "format": "cell-based", "details": "MB815, 182 μg/ml, read-out: Inhib. Zone Diam."}, "[17]": {"test_system": "Escherichia coli MB-1418", "test": "In vitro antibacterial spectrum profile, zone of inhibition", "format": "cell-based", "details": "MB1418, 182 μg/ml, read-out: Inhib. Zone Diam."}, "[18]": {"test_system": "Pseudomonas stutzeri ATCC 11607", "test": "In vitro antibacterial spectrum profile, zone of inhibition", "format": "cell-based", "details": "Stutzerimonas stutzeri, ATCC11607; 182 μg/ml; read-out: Inhib. Zone Diam."}, "[19]": {"test_system": "Klebsiella pneumoniae MB-1264", "test": "In vitro antibacterial spectrum profile, zone of inhibition", "format": "cell-based", "details": "MB1264, 182 μg/ml, read-out: Inhib. Zone Diam."}, "[20]": {"test_system": "Aerobacter aerogenes MB-835", "test": "In vitro antibacterial spectrum profile, zone of inhibition", "format": "cell-based", "details": "Klebsiella aerogenes, MB835; 182 μg/ml; read-out: Inhib. Zone Diam."}, "[21]": {"test_system": "Erwinia atroseptica ATCC 4466", "test": "In vitro antibacterial spectrum profile, zone of inhibition", "format": "cell-based", "details": "Pectobacterium atrosepticum, ATCC4466; 182 μg/ml; read-out: Inhib. Zone Diam."}, "[22]": {"test_system": "Pseudomonas aeruginosa MB-2824", "test": "In vitro antibacterial spectrum profile, zone of inhibition", "format": "cell-based", "details": "MB2824, 182 μg/ml, read-out: Inhib. Zone Diam."}, "[23]": {"test_system": "Escherichia coli ATCC 9637", "test": "In vitro antibacterial spectrum profile, zone of inhibition, synthetic medium", "format": "cell-based", "details": "ATCC9637, 182 μg/ml, synthetic medium, read-out: Inhib. Zone Diam."}, "[24]": {"test_system": "Streptococcus faecium MB-2820", "test": "In vitro antibacterial spectrum profile, zone of inhibition", "format": "cell-based", "details": "Enterococcus faecium, MB2820; 182 μg/ml; read-out: Inhib. Zone Diam."}, "[25]": {"test_system": "Streptococcus agalactiae MB-2875", "test": "In vitro antibacterial spectrum profile, zone of inhibition", "format": "cell-based", "details": "MB2875, 182 μg/ml, read-out: Inhib. Zone Diam."}, "[26]": {"test_system": "Vibrio percolans resistant to ceph. C MB-2566", "test": "In vitro antibacterial spectrum profile, zone of inhibition", "format": "cell-based", "details": "Comamonas terrigena, read-out: Inhib. Zone Diam."}, "[27]": {"test_system": "Proteus vulgaris (episome) MB-2112", "test": "In vitro antibacterial spectrum profile, zone of inhibition", "format": "cell-based", "details": "182 μg/ml, read-out: Inhib. Zone Diam."}, "[28]": {"test_system": "Proteus mirabilis MB-3126", "test": "In vitro antibacterial spectrum profile, zone of inhibition", "format": "cell-based", "details": "MB3126, 182 μg/ml, read-out: Inhib. Zone Diam."}, "[29]": {"test_system": "Vibrio percolans ATCC 8461 + 2 × 10^5 units/ml penicillinase", "test": "In vitro antibacterial spectrum profile, zone of inhibition, with penicillinase", "format": "cell-based", "details": "Comamonas terrigena, ATCC8461, 182 μg/ml, read-out: Inhib. Zone Diam."}, "[30]": {"test_system": "penicillinase", "test": "Resistance to degradation by penicillinase", "format": "biochemical", "details": "compared with 890A1", "description": "Bio-Gel fraction 63 is combined with fractions 61, 66 and 67 from the Bio-Gel column. These four combined fractions have a total of 235 absorbance units at 300 nm. To this is added 0.2 ml. of 1M Tris-HCl buffer, ph 7.5, and 0.2 ml. of penicillinase [Difco \"Bacto-Penase,\" containing 500,000 units per ml. (1000 LU/ml.) wherein the term LU refers to Levy units; 1,000 LU will inactivate 500,000 units of penicillin G].\nAfter 113 minutes at 23° C., an additional 0.2 ml. of penicillinase is added. After an additional 7 hours at room temperature, another 0.2 ml. of penicillinase is added, and after an additional two hours at room temperature, the reaction mixture is chilled in an ice bath. The terminated reaction mixture is diluted to 15 ml. by addition of 5 ml. of deionized water. The absorbance of the diluted reacted preparation is 6.3 at 300 nm of which 2.64 is extinguishable by reaction with cysteine."}, "[31]": {"test": "Electrophoresis", "format": "physicochemical", "details": "neutral pH"}, "[32]": {"test_system": "Vibrio percolans ATCC 8461", "test": "Bioassay, agar plate disc-diffusion method", "details": "890A1 value defined as standard"}},
  "data": [
    {"smiles": "CC(=O)NCCSC1=C(C(=O)O)N2C(=O)C(C(C)O)C2C1", "note": "(centres unmarked) [Antibiotic 890A3]", "values": [
      {"measurement": "zone of inhibition at 182 µg/mL", "setting": "[1]", "result": 34, "unit": "mm"},
      {"measurement": "zone of inhibition at 182 µg/mL", "setting": "[2]", "result": 37, "unit": "mm"},
      {"measurement": "zone of inhibition at 182 µg/mL", "setting": "[3]", "result": 36, "unit": "mm"},
      {"measurement": "zone of inhibition at 182 µg/mL", "setting": "[4]", "result": 34, "unit": "mm"},
      {"measurement": "zone of inhibition at 182 µg/mL", "setting": "[5]", "result": 24, "unit": "mm"},
      {"measurement": "zone of inhibition at 182 µg/mL", "setting": "[6]", "result": 0, "unit": "mm"},
      {"measurement": "zone of inhibition at 182 µg/mL", "setting": "[7]", "result": 28, "unit": "mm"},
      {"measurement": "zone of inhibition at 182 µg/mL", "setting": "[8]", "result": 36, "unit": "mm"},
      {"measurement": "zone of inhibition at 182 µg/mL", "setting": "[9]", "result": 40, "unit": "mm"},
      {"measurement": "zone of inhibition at 182 µg/mL", "setting": "[10]", "result": 44, "unit": "mm"},
      {"measurement": "zone of inhibition at 182 µg/mL", "setting": "[11]", "result": 34, "unit": "mm"},
      {"measurement": "zone of inhibition at 182 µg/mL", "setting": "[12]", "result": 17, "unit": "mm"},
      {"measurement": "zone of inhibition at 182 µg/mL", "setting": "[13]", "result": 27, "unit": "mm"},
      {"measurement": "zone of inhibition at 182 µg/mL", "setting": "[14]", "result": 33, "unit": "mm"},
      {"measurement": "zone of inhibition at 182 µg/mL", "setting": "[15]", "result": 40, "unit": "mm"},
      {"measurement": "zone of inhibition at 182 µg/mL", "setting": "[16]", "result": 26, "unit": "mm"},
      {"measurement": "zone of inhibition at 182 µg/mL", "setting": "[17]", "result": 32, "unit": "mm"},
      {"measurement": "zone of inhibition at 182 µg/mL", "setting": "[18]", "result": 32, "unit": "mm"},
      {"measurement": "zone of inhibition at 182 µg/mL", "setting": "[19]", "result": 33, "unit": "mm"},
      {"measurement": "zone of inhibition at 182 µg/mL", "setting": "[20]", "result": 30, "unit": "mm"},
      {"measurement": "zone of inhibition at 182 µg/mL", "setting": "[21]", "result": 30, "unit": "mm"},
      {"measurement": "zone of inhibition at 182 µg/mL", "setting": "[22]", "result": 32, "unit": "mm"},
      {"measurement": "zone of inhibition at 182 µg/mL", "setting": "[23]", "result": 29, "unit": "mm"},
      {"measurement": "zone of inhibition at 182 µg/mL", "setting": "[24]", "result": 24, "unit": "mm"},
      {"measurement": "zone of inhibition at 182 µg/mL", "setting": "[25]", "result": 30, "unit": "mm"},
      {"measurement": "zone of inhibition at 182 µg/mL", "setting": "[26]", "result": 34, "unit": "mm"},
      {"measurement": "zone of inhibition at 182 µg/mL", "setting": "[27]", "result": 38, "unit": "mm"},
      {"measurement": "zone of inhibition at 182 µg/mL", "setting": "[28]", "result": 30, "unit": "mm"},
      {"measurement": "zone of inhibition at 182 µg/mL", "setting": "[29]", "result": 35, "unit": "mm"},
      {"measurement": "resistance to degradation by penicillinase", "setting": "[30]", "result": "relatively higher resistance"},
      {"measurement": "movement on electrophoresis", "setting": "[31]", "result": "acidic substance which moves to the positive pole on electrophoresis at neutral pH"},
      {"measurement": "antibiotic potency", "setting": "[32]", "result": 31, "unit": "units per HAEA300 unit"}
    ]}
  ]
}
